Experimental data as given in patent US20230015308A1, “SUBSTITUTED THIAZOLE AROMATIC RING-BASED COMPOUND AND PREPARATION METHOD THEREFOR, HERBICIDAL COMPOSITION AND USE THEREOF” (QINGDAO KINGAGROOT CHEMICAL COMPOUND CO., LTD., priority 2019, published 2023).

Each compound was assayed on Abutilon theophrasti (assay: Weeding effect in post-emergence stage (greenhouse pot test)). Settings: 15 g a.i./ha, 3 weeks after application.
Format: in vivo
Source text: (§1) The activity level criteria for plant damage (i.e., growth control rate) are as follows:
(§2) Level 5: growth control rate is above 85%;
(§3) Level 4: growth control rate is greater than or equal to 60% and less than 85%;
(§4) Level 3: growth control rate is greater than or equal to 40% and less than 60%;
(§5) Level 2: growth control rate is greater than or equal to 20% and less than 40%;
(§6) Level 1: growth control rate is greater than or equal to 5% and less than 20%;
(§7) Level 0: growth control rate is less than 5%.
(§8) The above growth control rates are fresh weight control rates.
(§9) Experiment on weeding effect in post-emergence stage:
(§10) Monocotyledonous and dicotyledonous weed seeds (Descurainia sophia, Capsella bursa-pastoris, Abutilon theophrasti, Galium aparine, Stellaria media, Lithospermum arvense, Rorippa indica, Alopecurus aequalis, Alopecurus japonicus, Beckmannia syzigachne, Sclerochloa dura, Conyza Canadensis, Phleum paniculatum, Veronica didyma Tenore, Eleusine indica, Bromus japonicus, Aegilops tauschii, Phalaris arundinacea, Amaranthus retroflexus, Chenopodium album, Commelina communis, Sonchus arvensis, Convolvulus arvensis, Cirsium setosum, Solanum nigrum, Acalypha australis, Digitaria sanguinalis, Echinochloa crusgalli, Setaria viridis, Setaria glauca, Leptochloa chinensis, Monochoria vaginalis, Sagittaria trifolia, Scirpus juncoides, Cyperus rotundus, Cyperus iria, Cyperus difformis, Fimbristylis, Portulaca oleracea, Xanthium sibiricum, Pharbitis nil) and major crop seeds (wheat, corn, rice, soybean, cotton, oilseed rape, millet, sorghum, potato, sesame, ricinus) were placed in plastic pots filled with soil, then covered with 0.5-2 cm of soil, allowed to grow in a good greenhouse environment. After 2 weeks of sowing, the test plants were treated in the 2-3 leaf stage. The tested compounds of the present invention were respectively dissolved in acetone, then added with Tween 80 and 1.5 liter/ha of emulsifiable concentrate of methyl oleate as synergist, diluted with a certain amount of water to obtain a solution with a certain concentration, and sprayed with a spray tower onto the plants. After the application, the plants were cultured for 3 weeks in the greenhouse, and then the experimental results of the weeding were counted. The doses of the used compounds were 500, 250, 125, 60, 15 g a.i./ha, and the averages were obtained by repeating for three times.

Compound | Abutilon theophrasti, activity level (fresh weight growth control rate)
CCOC(=O)c1cnc(-c2nc(-n3c(=O)n(C)c(=S)n(C)c3=O)c(F)cc2Cl)s1 [1-123] | 5 (Level 5: growth control rate is above 85%)
C=CCOC(=O)c1cnc(-c2cc(-n3c(=O)cc(C(F)(F)F)n(C)c3=O)c(F)cc2Cl)s1 [1-10] | 5 (Level 5: growth control rate is above 85%)
CCOC(=O)c1csc(-c2cc(-n3c(=O)cc(C(F)(F)F)n(C)c3=O)c(F)cc2Cl)n1 [2-2] | 5 (Level 5: growth control rate is above 85%)
C#CCOC(=O)c1cnc(-c2cc(-n3c(=O)cc(C(F)(F)F)n(C)c3=O)c(F)cc2Cl)s1 [1-12] | 5 (Level 5: growth control rate is above 85%)
Cn1c(C(F)(F)F)cc(=O)n(-c2cc(-c3ncc(C(=O)OCC4CCCO4)s3)c(Cl)cc2F)c1=O (centres unmarked) [1-33] | 5 (Level 5: growth control rate is above 85%)

These compounds were tested on Alopecurus japonicus in the same assay as above. Settings: 15 g a.i./ha, 3 weeks after application.
Format: in vivo
Source text: as §1, §2, §3, §4, §5, §6, §7, §8, §9, §10

Compound | Alopecurus japonicus, activity level (fresh weight growth control rate)
CCOC(=O)c1cnc(-c2nc(-n3c(=O)n(C)c(=S)n(C)c3=O)c(F)cc2Cl)s1 [1-123] | 5 (Level 5: growth control rate is above 85%)
C=CCOC(=O)c1cnc(-c2cc(-n3c(=O)cc(C(F)(F)F)n(C)c3=O)c(F)cc2Cl)s1 [1-10] | 3 (Level 3: growth control rate is greater than or equal to 40% and less than 60%)
C#CCOC(=O)c1cnc(-c2cc(-n3c(=O)cc(C(F)(F)F)n(C)c3=O)c(F)cc2Cl)s1 [1-12] | 3 (Level 3: growth control rate is greater than or equal to 40% and less than 60%)
Cn1c(C(F)(F)F)cc(=O)n(-c2cc(-c3ncc(C(=O)OCC4CCCO4)s3)c(Cl)cc2F)c1=O (centres unmarked) [1-33] | 3 (Level 3: growth control rate is greater than or equal to 40% and less than 60%)

These compounds were tested on Amaranthus retroflexus in the same assay as above. Settings: 15 g a.i./ha, 3 weeks after application.
Format: in vivo
Source text: as §1, §2, §3, §4, §5, §6, §7, §8, §9, §10

Compound | Amaranthus retroflexus, activity level (fresh weight growth control rate)
CCOC(=O)c1cnc(-c2nc(-n3c(=O)n(C)c(=S)n(C)c3=O)c(F)cc2Cl)s1 [1-123] | 5 (Level 5: growth control rate is above 85%)
C=CCOC(=O)c1cnc(-c2cc(-n3c(=O)cc(C(F)(F)F)n(C)c3=O)c(F)cc2Cl)s1 [1-10] | 5 (Level 5: growth control rate is above 85%)
CCOC(=O)c1csc(-c2cc(-n3c(=O)cc(C(F)(F)F)n(C)c3=O)c(F)cc2Cl)n1 [2-2] | 5 (Level 5: growth control rate is above 85%)
C#CCOC(=O)c1cnc(-c2cc(-n3c(=O)cc(C(F)(F)F)n(C)c3=O)c(F)cc2Cl)s1 [1-12] | 5 (Level 5: growth control rate is above 85%)
Cn1c(C(F)(F)F)cc(=O)n(-c2cc(-c3ncc(C(=O)OCC4CCCO4)s3)c(Cl)cc2F)c1=O (centres unmarked) [1-33] | 5 (Level 5: growth control rate is above 85%)

Each compound was assayed on Beckmannia syzigachne in the same assay as above. Settings: 15 g a.i./ha, 3 weeks after application.
Format: in vivo
Source text: as §1, §2, §3, §4, §5, §6, §7, §8, §9, §10

Compound | Beckmannia syzigachne, activity level (fresh weight growth control rate)
CCOC(=O)c1cnc(-c2nc(-n3c(=O)n(C)c(=S)n(C)c3=O)c(F)cc2Cl)s1 [1-123] | 5 (Level 5: growth control rate is above 85%)
C=CCOC(=O)c1cnc(-c2cc(-n3c(=O)cc(C(F)(F)F)n(C)c3=O)c(F)cc2Cl)s1 [1-10] | 3 (Level 3: growth control rate is greater than or equal to 40% and less than 60%)
C#CCOC(=O)c1cnc(-c2cc(-n3c(=O)cc(C(F)(F)F)n(C)c3=O)c(F)cc2Cl)s1 [1-12] | 3 (Level 3: growth control rate is greater than or equal to 40% and less than 60%)
Cn1c(C(F)(F)F)cc(=O)n(-c2cc(-c3ncc(C(=O)OCC4CCCO4)s3)c(Cl)cc2F)c1=O (centres unmarked) [1-33] | 3 (Level 3: growth control rate is greater than or equal to 40% and less than 60%)

Each compound was assayed on Digitaria sanguinalis in the same assay as above. Settings: 15 g a.i./ha, 3 weeks after application.
Format: in vivo
Source text: as §1, §2, §3, §4, §5, §6, §7, §8, §9, §10

Compound | Digitaria sanguinalis, activity level (fresh weight growth control rate)
CCOC(=O)c1cnc(-c2nc(-n3c(=O)n(C)c(=S)n(C)c3=O)c(F)cc2Cl)s1 [1-123] | 5 (Level 5: growth control rate is above 85%)
C=CCOC(=O)c1cnc(-c2cc(-n3c(=O)cc(C(F)(F)F)n(C)c3=O)c(F)cc2Cl)s1 [1-10] | 4 (Level 4: growth control rate is greater than or equal to 60% and less than 85%)
CCOC(=O)c1csc(-c2cc(-n3c(=O)cc(C(F)(F)F)n(C)c3=O)c(F)cc2Cl)n1 [2-2] | 4 (Level 4: growth control rate is greater than or equal to 60% and less than 85%)
C#CCOC(=O)c1cnc(-c2cc(-n3c(=O)cc(C(F)(F)F)n(C)c3=O)c(F)cc2Cl)s1 [1-12] | 5 (Level 5: growth control rate is above 85%)
Cn1c(C(F)(F)F)cc(=O)n(-c2cc(-c3ncc(C(=O)OCC4CCCO4)s3)c(Cl)cc2F)c1=O (centres unmarked) [1-33] | 5 (Level 5: growth control rate is above 85%)

The compounds below were run on Echinochloa crusgalli in the same assay as above. Settings: 15 g a.i./ha, 3 weeks after application.
Format: in vivo
Source text: as §1, §2, §3, §4, §5, §6, §7, §8, §9, §10

Compound | Echinochloa crusgalli, activity level (fresh weight growth control rate)
CCOC(=O)c1cnc(-c2nc(-n3c(=O)n(C)c(=S)n(C)c3=O)c(F)cc2Cl)s1 [1-123] | 5 (Level 5: growth control rate is above 85%)
C=CCOC(=O)c1cnc(-c2cc(-n3c(=O)cc(C(F)(F)F)n(C)c3=O)c(F)cc2Cl)s1 [1-10] | 5 (Level 5: growth control rate is above 85%)
C#CCOC(=O)c1cnc(-c2cc(-n3c(=O)cc(C(F)(F)F)n(C)c3=O)c(F)cc2Cl)s1 [1-12] | 5 (Level 5: growth control rate is above 85%)
Cn1c(C(F)(F)F)cc(=O)n(-c2cc(-c3ncc(C(=O)OCC4CCCO4)s3)c(Cl)cc2F)c1=O (centres unmarked) [1-33] | 5 (Level 5: growth control rate is above 85%)

These compounds were tested on Galium aparine in the same assay as above. Settings: 15 g a.i./ha, 3 weeks after application.
Format: in vivo
Source text: as §1, §2, §3, §4, §5, §6, §7, §8, §9, §10

Compound | Galium aparine, activity level (fresh weight growth control rate)
CCOC(=O)c1cnc(-c2nc(-n3c(=O)n(C)c(=S)n(C)c3=O)c(F)cc2Cl)s1 [1-123] | 5 (Level 5: growth control rate is above 85%)
C=CCOC(=O)c1cnc(-c2cc(-n3c(=O)cc(C(F)(F)F)n(C)c3=O)c(F)cc2Cl)s1 [1-10] | 5 (Level 5: growth control rate is above 85%)
CCOC(=O)c1csc(-c2cc(-n3c(=O)cc(C(F)(F)F)n(C)c3=O)c(F)cc2Cl)n1 [2-2] | 5 (Level 5: growth control rate is above 85%)
C#CCOC(=O)c1cnc(-c2cc(-n3c(=O)cc(C(F)(F)F)n(C)c3=O)c(F)cc2Cl)s1 [1-12] | 5 (Level 5: growth control rate is above 85%)
Cn1c(C(F)(F)F)cc(=O)n(-c2cc(-c3ncc(C(=O)OCC4CCCO4)s3)c(Cl)cc2F)c1=O (centres unmarked) [1-33] | 5 (Level 5: growth control rate is above 85%)

What follows are compounds tested on Setaria viridis in the same assay as above. Settings: 15 g a.i./ha, 3 weeks after application.
Format: in vivo
Source text: as §1, §2, §3, §4, §5, §6, §7, §8, §9, §10

Compound | Setaria viridis, activity level (fresh weight growth control rate)
CCOC(=O)c1cnc(-c2nc(-n3c(=O)n(C)c(=S)n(C)c3=O)c(F)cc2Cl)s1 [1-123] | 5 (Level 5: growth control rate is above 85%)
C=CCOC(=O)c1cnc(-c2cc(-n3c(=O)cc(C(F)(F)F)n(C)c3=O)c(F)cc2Cl)s1 [1-10] | 5 (Level 5: growth control rate is above 85%)
C#CCOC(=O)c1cnc(-c2cc(-n3c(=O)cc(C(F)(F)F)n(C)c3=O)c(F)cc2Cl)s1 [1-12] | 5 (Level 5: growth control rate is above 85%)
Cn1c(C(F)(F)F)cc(=O)n(-c2cc(-c3ncc(C(=O)OCC4CCCO4)s3)c(Cl)cc2F)c1=O (centres unmarked) [1-33] | 5 (Level 5: growth control rate is above 85%)

Each compound was assayed on Veronica didyma Tenore in the same assay as above. Settings: 15 g a.i./ha, 3 weeks after application.
Format: in vivo
Source text: as §1, §2, §3, §4, §5, §6, §7, §8, §9, §10

Compound | Veronica didyma Tenore, activity level (fresh weight growth control rate)
CCOC(=O)c1cnc(-c2nc(-n3c(=O)n(C)c(=S)n(C)c3=O)c(F)cc2Cl)s1 [1-123] | 5 (Level 5: growth control rate is above 85%)
C=CCOC(=O)c1cnc(-c2cc(-n3c(=O)cc(C(F)(F)F)n(C)c3=O)c(F)cc2Cl)s1 [1-10] | 5 (Level 5: growth control rate is above 85%)
CCOC(=O)c1csc(-c2cc(-n3c(=O)cc(C(F)(F)F)n(C)c3=O)c(F)cc2Cl)n1 [2-2] | 5 (Level 5: growth control rate is above 85%)
C#CCOC(=O)c1cnc(-c2cc(-n3c(=O)cc(C(F)(F)F)n(C)c3=O)c(F)cc2Cl)s1 [1-12] | 5 (Level 5: growth control rate is above 85%)
Cn1c(C(F)(F)F)cc(=O)n(-c2cc(-c3ncc(C(=O)OCC4CCCO4)s3)c(Cl)cc2F)c1=O (centres unmarked) [1-33] | 5 (Level 5: growth control rate is above 85%)
